From ChEMBL document CHEMBL4425083, “Quadruplex Nucleic Acids as Novel Therapeutic Targets” (J Med Chem, 2016) come the findings set out here.

This assay concerns Quadruplex DNA. Briefly: Binding affinity to c-myc G-quadruplex DNA (unknown origin) assessed as increase in melting temperature at 50 uM by CD-spectrometric analysis. The format is nucleic-acid assay.

On to `Cc1ccc(NC(=O)c2c(C)oc3ccc(O)c(CN4CCCCCC4)c23)cc1`, for which the ΔTm was determined as 2.1 °C.
